ChEMBL document CHEMBL1201862, “PubChem BioAssay data set” (2004)
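1) Cells in 96-well plates. 2) Compound, 48 h, 5 concentrations. 3) Linear interpolation between surrounding doses. 4) Unreached endpoint = highest concentration. GI50: concentration for 50% inhibition of growth.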 Calls of active or inactive are those of the source. No stated cut-off is given here; in the data, active = GI50 up to about 1.1 µM and inactive = higher.

Legend:
Assay in all cases: NCI-60 cell line screen, 48 h
SF-295 = system: SF-295
HOP-92 = system: HOP-92
SW-620 = system: SW-620
NCI-H23 = system: NCI-H23
IGROV-1 = system: IGROV-1
A498 = system: A498
SNB-75 = system: SNB-75
MCF7 = system: MCF7
OVCAR-5 = system: OVCAR-5
MDA-MB-435 = system: MDA-MB-435
HL-60 = system: HL-60
SK-MEL-5 = system: SK-MEL-5
LOX IMVI = system: LOX IMVI
SF-268 = system: SF-268
A549 = system: A549
COLO 205 = system: COLO 205
UO-31 = system: UO-31
PC-3 = system: PC-3
T47D = system: T47D
SK-MEL-2 = system: SK-MEL-2

Structure (SMILES) | GI50 (SF-295) | GI50 (HOP-92) | GI50 (SW-620) | GI50 (NCI-H23) | GI50 (IGROV-1) | GI50 (A498) | GI50 (SNB-75) | GI50 (MCF7) | GI50 (OVCAR-5) | GI50 (MDA-MB-435) | GI50 (HL-60) | GI50 (SK-MEL-5) | GI50 (LOX IMVI) | GI50 (SF-268) | GI50 (A549) | GI50 (COLO 205) | GI50 (UO-31) | GI50 (PC-3) | GI50 (T47D) | GI50 (SK-MEL-2)
N=C(Nc1nc(-c2ccccn2)cc2ccccc12)c1ccccn1 | 0.326 µM (active) | 0.0233 µM (active) | 0.0182 µM (active) | 0.0156 µM (active) | 0.0322 µM (active) | 0.233 µM (active) | 0.361 µM (active) | 0.0106 µM (active) | 0.0148 µM (active) | 0.12 µM (active) | 0.01 µM (active) | 0.0817 µM (active) | 0.0266 µM (active) | 0.065 µM (active) | 0.0733 µM (active) | 0.011 µM (active) | 0.0918 µM (active) | < 0.0129 µM (active) | 0.0244 µM (active) | –
Clc1ccc2oc(CCC3CCCCC3)nc2c1 | 22 µM (inactive) | 35.2 µM (inactive) | 31.8 µM (inactive) | 29.9 µM (inactive) | – | 37.8 µM (inactive) | 23 µM (inactive) | 26.1 µM (inactive) | 33.3 µM (inactive) | 27.3 µM (inactive) | 16.3 µM (inactive) | 16.9 µM (inactive) | 4.7 µM (inactive) | 64.7 µM (inactive) | 31.6 µM (inactive) | 21.4 µM (inactive) | 17.9 µM (inactive) | 33 µM (inactive) | 20.5 µM (inactive) | 19.1 µM (inactive)
Cn1c2c(c3ccccc31)CCN=C2C1CCCOC1=O (stereo not given) | – | 45.4 µM (inactive) | > 100 µM (inactive) | – | > 100 µM (inactive) | > 100 µM (inactive) | 85.9 µM (inactive) | > 100 µM (inactive) | > 100 µM (inactive) | > 100 µM (inactive) | > 100 µM (inactive) | > 100 µM (inactive) | > 100 µM (inactive) | > 100 µM (inactive) | > 100 µM (inactive) | > 100 µM (inactive) | 43.5 µM (inactive) | > 100 µM (inactive) | > 100 µM (inactive) | > 100 µM (inactive)
Cc1n[nH]c(=O)n1-c1cccnc1 | > 100 µM (inactive) | > 100 µM (inactive) | > 100 µM (inactive) | > 100 µM (inactive) | > 100 µM (inactive) | > 100 µM (inactive) | > 100 µM (inactive) | > 100 µM (inactive) | > 100 µM (inactive) | > 100 µM (inactive) | > 100 µM (inactive) | > 100 µM (inactive) | > 100 µM (inactive) | > 100 µM (inactive) | > 100 µM (inactive) | > 100 µM (inactive) | > 100 µM (inactive) | > 100 µM (inactive) | > 100 µM (inactive) | –
COc1ccc(CCNC(=O)CCc2ccccc2CO)cc1OC | > 100 µM (inactive) | > 100 µM (inactive) | > 100 µM (inactive) | > 100 µM (inactive) | > 100 µM (inactive) | > 100 µM (inactive) | > 100 µM (inactive) | > 100 µM (inactive) | > 100 µM (inactive) | > 100 µM (inactive) | > 100 µM (inactive) | > 100 µM (inactive) | – | > 100 µM (inactive) | > 100 µM (inactive) | > 100 µM (inactive) | > 100 µM (inactive) | > 100 µM (inactive) | > 100 µM (inactive) | > 100 µM (inactive)
CCOC(=O)C1CCCCN1CCc1c[nH]c2ccccc12 (stereo not given) | 66.2 µM (inactive) | 16 µM (inactive) | > 100 µM (inactive) | 83.8 µM (inactive) | > 100 µM (inactive) | 44.1 µM (inactive) | > 100 µM (inactive) | > 100 µM (inactive) | > 100 µM (inactive) | > 100 µM (inactive) | – | 80.9 µM (inactive) | > 100 µM (inactive) | > 100 µM (inactive) | 74.6 µM (inactive) | > 100 µM (inactive) | 83.4 µM (inactive) | > 100 µM (inactive) | 32.5 µM (inactive) | > 100 µM (inactive)
CC(=O)O[C@H]1CC[C@@]2(C)C(=CC[C@@H]3[C@@H]2CC[C@]2(C)Nc4c(cnn4S(C)(=O)=O)C[C@@H]32)C1 | 62.2 µM (inactive) | 71.3 µM (inactive) | – | 42.5 µM (inactive) | 97.1 µM (inactive) | > 100 µM (inactive) | 69.3 µM (inactive) | 28.9 µM (inactive) | 38.2 µM (inactive) | 46.8 µM (inactive) | 23.4 µM (inactive) | 16.4 µM (inactive) | – | – | – | 69 µM (inactive) | 76.7 µM (inactive) | 39.1 µM (inactive) | 36.1 µM (inactive) | > 100 µM (inactive)
COc1nc2ncc([C@@H](OC(C)=O)[C@@H](COC(C)=O)OC(C)=O)nc2c(=O)n1C | > 100 µM (inactive) | > 100 µM (inactive) | > 100 µM (inactive) | – | > 100 µM (inactive) | > 100 µM (inactive) | > 100 µM (inactive) | > 100 µM (inactive) | > 100 µM (inactive) | > 100 µM (inactive) | 24.3 µM (inactive) | > 100 µM (inactive) | > 100 µM (inactive) | > 100 µM (inactive) | > 100 µM (inactive) | > 100 µM (inactive) | > 100 µM (inactive) | > 100 µM (inactive) | > 100 µM (inactive) | > 100 µM (inactive)
COc1ccc2c(c1OC)C(=O)N1C2=Cc2c(cc3c(c2OC)OCO3)CC1N(C)C (stereo not given) | 50.8 µM (inactive) | 30.3 µM (inactive) | 62.1 µM (inactive) | 34 µM (inactive) | > 100 µM (inactive) | 47.8 µM (inactive) | 29.8 µM (inactive) | 58.7 µM (inactive) | > 100 µM (inactive) | 53.3 µM (inactive) | 24.9 µM (inactive) | 45.1 µM (inactive) | – | 63.5 µM (inactive) | 47.4 µM (inactive) | 58.2 µM (inactive) | 29.9 µM (inactive) | 30.9 µM (inactive) | 24.4 µM (inactive) | 36.2 µM (inactive)
COC(=O)C(/C(=N/N)C(=O)Nc1cccc(O)c1)c1nc2ccccc2nc1O (stereo not given) | > 100 µM (inactive) | > 100 µM (inactive) | > 100 µM (inactive) | > 100 µM (inactive) | > 100 µM (inactive) | > 100 µM (inactive) | > 100 µM (inactive) | > 100 µM (inactive) | > 100 µM (inactive) | > 100 µM (inactive) | > 100 µM (inactive) | > 100 µM (inactive) | > 100 µM (inactive) | > 100 µM (inactive) | > 100 µM (inactive) | – | > 100 µM (inactive) | > 100 µM (inactive) | > 100 µM (inactive) | > 100 µM (inactive)
COc1cc(/N=C(\N)N=C(N)N)c2ncccc2c1 | > 100 µM (inactive) | 67 µM (inactive) | > 100 µM (inactive) | 80.7 µM (inactive) | > 100 µM (inactive) | > 100 µM (inactive) | 60.4 µM (inactive) | > 100 µM (inactive) | > 100 µM (inactive) | > 100 µM (inactive) | – | 39.9 µM (inactive) | > 100 µM (inactive) | 98.2 µM (inactive) | > 100 µM (inactive) | 74.8 µM (inactive) | > 100 µM (inactive) | > 100 µM (inactive) | 29.9 µM (inactive) | > 100 µM (inactive)
O=[N+]([O-])c1ccc(C(=S)Nc2ccccc2)o1 | 5.56 µM (inactive) | 15.3 µM (inactive) | 1.27 µM (inactive) | 3.35 µM (inactive) | 6.1 µM (inactive) | 18.1 µM (inactive) | 7.67 µM (inactive) | 2.05 µM (inactive) | 4.54 µM (inactive) | 2.58 µM (inactive) | 2.1 µM (inactive) | 10.9 µM (inactive) | 2.29 µM (inactive) | 3.36 µM (inactive) | 6.55 µM (inactive) | – | 2.32 µM (inactive) | 1.79 µM (inactive) | 4.33 µM (inactive) | 2.48 µM (inactive)
N#CC(C#N)=C1/C(=C/C=C/C=C/C=C/c2ccc(N3CCCCC3)s2)S(=O)(=O)c2ccccc21 | > 100 µM (inactive) | 95.9 µM (inactive) | > 100 µM (inactive) | > 100 µM (inactive) | > 100 µM (inactive) | > 100 µM (inactive) | > 100 µM (inactive) | > 100 µM (inactive) | > 100 µM (inactive) | > 100 µM (inactive) | > 100 µM (inactive) | > 100 µM (inactive) | > 100 µM (inactive) | – | > 100 µM (inactive) | > 100 µM (inactive) | – | > 100 µM (inactive) | 80.9 µM (inactive) | > 100 µM (inactive)
Cc1ccccc1/N=N/c1c(O)c(S(=O)(=O)O)cc2cc(S(=O)(=O)O)ccc12 | > 100 µM (inactive) | > 100 µM (inactive) | > 100 µM (inactive) | > 100 µM (inactive) | > 100 µM (inactive) | > 100 µM (inactive) | 70.1 µM (inactive) | > 100 µM (inactive) | > 100 µM (inactive) | > 100 µM (inactive) | > 100 µM (inactive) | > 100 µM (inactive) | – | > 100 µM (inactive) | > 100 µM (inactive) | > 100 µM (inactive) | > 100 µM (inactive) | > 100 µM (inactive) | > 100 µM (inactive) | > 100 µM (inactive)
CC(=O)Oc1cccc2c1C(=O)c1c(OC(C)=O)cc(C)cc1C2=O | 29.1 µM (inactive) | 70.6 µM (inactive) | 37 µM (inactive) | 50.9 µM (inactive) | 25.7 µM (inactive) | 37.8 µM (inactive) | 36 µM (inactive) | 46 µM (inactive) | > 100 µM (inactive) | 43.4 µM (inactive) | 23.6 µM (inactive) | 29 µM (inactive) | 69 µM (inactive) | 62.8 µM (inactive) | 47.5 µM (inactive) | 58.2 µM (inactive) | – | 26.1 µM (inactive) | 32.4 µM (inactive) | 29 µM (inactive)
